According to PubChem BioAssay AID1259411 (Chemical Carcinogenesis Research Information System (CCRIS), 2018):
Activity calls are given as the source filed them. How the calls were made is not given here.

Test system: rodent carcinogenicity bioassays, tumor incidence
Assay: CCRIS carcinogenicity studies
Method in brief: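 Archive of carcinogenicity, mutagenicity, tumor promotion and tumor inhibition results drawn from journals, NCI reports and other sources, expert-reviewed; covers 1985-2011 and is no longer updated.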

**Q.** Which carcinogen call (Species: MOUSE, Strain/Sex: ICR/FEMALE, Route: DERMAL, Dose: 0, 1 MG IN 0.1 ML DISTILLED WATER 2/WK FOR A MEAN TOTAL DOSE OF 133.4 MG (STUDY DURATION: 18 MO)) does the source give for `O=C(O)C1=NN(c2ccc(S(=O)(=O)O)cc2)C(=O)C1N=Nc1ccc(S(=O)(=O)O)cc1` (centres undefined) here?
**A.** Its carcinogen call is “inactive; negative”.

**Q.** What about the carcinogen call (Species: MOUSE, Strain/Sex: ICR/MALE, Route: DERMAL, Dose: 0, 1 MG IN 0.1 ML DISTILLED WATER 2/WK FOR A MEAN TOTAL DOSE OF 133.4 MG (STUDY DURATION: 18 MO)) of the same molecule?
**A.** Its carcinogen call is “inactive; negative”.

**Q.** And the carcinogen call (Species: RAT, Strain/Sex: F344/FEMALE, Route: ORAL, Dose: 0, 1, 2% IN DRINKING WATER FOR 104 WK (STUDY DURATION: 112 WK), Dose: 0, 1, 2% IN DRINKING WATER FOR 104 WK (STUDY DURATION: 112 WK))?
**A.** Its carcinogen call is “inactive; negative”.

**Q.** What about the carcinogen call (Species: RAT, Strain/Sex: F344/MALE, Route: ORAL, Dose: 0, 1, 2% IN DRINKING WATER FOR 104 WK (STUDY DURATION: 112 WK), Dose: 0, 1, 2% IN DRINKING WATER FOR 104 WK (STUDY DURATION: 112 WK)) of the same molecule?
**A.** The carcinogen call was “inactive; negative”.

**Q.** What does the source list for `COc1ccc([N+](=O)[O-])cc1N=Nc1c(O)c(C(=O)Nc2cccc([N+](=O)[O-])c2)cc2ccccc12`?
**A.** carcinogen call (Species: MOUSE, Strain/Sex: B6C3F1/FEMALE, Route: ORAL, Dose: 0, 10000, 25000, 50000 PPM IN DIET FOR 720 D (STUDY DURATION: 104 WK), Dose: 0, 10000, 25000, 50000 PPM IN DIET FOR 720 D (STUDY DURATION: 104 WK)): inactive; negative; carcinogen call (Species: MOUSE, Strain/Sex: B6C3F1/MALE, Route: ORAL, Dose: 0, 10000, 25000, 50000 PPM IN DIET FOR 720 D (STUDY DURATION: 104 WK), Dose: 0, 10000, 25000, 50000 PPM IN DIET FOR 720 D (STUDY DURATION: 104 WK)): inactive; negative; carcinogen call (Species: RAT, Strain/Sex: F344/FEMALE, Route: ORAL, Dose: 0, 10000, 25000, 50000 PPM IN DIET FOR 720 D (STUDY DURATION: 105 WK), Dose: 0, 10000, 25000, 50000 PPM IN DIET FOR 720 D (STUDY DURATION: 105 WK)): inactive; negative; carcinogen call (Species: RAT, Strain/Sex: F344/MALE, Route: ORAL, Dose: 0, 10000, 25000, 50000 PPM IN DIET FOR 103 WK (STUDY DURATION: 105 WK), Dose: 0, 10000, 25000, 50000 PPM IN DIET FOR 103 WK (STUDY DURATION: 105 WK), Tumor Site: Type of Lesion: KIDNEY: RENAL TUBULE ADENOMA OR CARCINOMA, MULTIPLE ORGANS: MONONUCLEAR CELL LEUKEMIA): equivocal

**Q.** How did the carcinogen call (Species: MOUSE, Strain/Sex: A/J/MALE,FEMALE, Route: INTRAPERITONEAL INJECTION, Dose: 5, 10 MG/KG BW ONCE A WEEK FOR 4 WKS, Tumor Site: Type of Lesion: COLON: TUMORS (ADENOMA), % OF TUMOR BEARING MICE WAS 10X HIGHER IN 10 MG/KG GROUP) turn out when `CN=[N+](C)[O-]` was run?
**A.** Its carcinogen call is “active; positive; all animals given 20 mg/kg died”.

**Q.** And the carcinogen call (Species: MOUSE, Strain/Sex: A/J/MALE,FEMALE, Route: INTRAPERITONEAL INJECTION, Dose: 10 MG/KG ONCE WEEKLY FOR 2, 4, 8 WKS, Tumor Site: Type of Lesion: COLON: ADENOMA)?
**A.** Its carcinogen call is “active; positive; response of approximately 25% with 2 doses to almost 100% at 4 or 8 d”.

**Q.** What about the carcinogen call (Species: MOUSE, Strain/Sex: A/J/MALE,FEMALE, Route: SUBCUTANEOUS INJECTION, Dose: 10 MG/KG BW ONCE A WK FOR 4 WK, Tumor Site: Type of Lesion: COLON: ADENOMA) of the same molecule?
**A.** The carcinogen call was “active; positive; almost 80% incidence”.

**Q.** And the carcinogen call (Species: MOUSE, Strain/Sex: AKR/J/MALE,FEMALE, Route: INTRAPERITONEAL INJECTION, Dose: 10 MG/KG BW WEEKLY FOR 2, 4, 8 WKS (STUDY DURATION: 6 MO), Tumor Site: Type of Lesion: COLON: ADENOMAS)?
**A.** The carcinogen call was “only 5% of animals at 4 wk treatment developed tumors”.

**Q.** And the carcinogen call (Species: MOUSE, Strain/Sex: AKR/J/MALE,FEMALE, Route: SUBCUTANEOUS, Dose: 10 MG/KG BW WEEKLY FOR 4 WK (STUDY DURATION: 6 MO), Tumor Site: Type of Lesion: COLON: ADENOMA)?
**A.** Its carcinogen call is “only about 5% developed tumors”.

**Q.** And the carcinogen call (Species: MOUSE, Strain/Sex: ICR/MALE, Route: SUBCUTANEOUS, Dose: 0, 0.3 MG/MOUSE IN SALINE 1/WK FOR 20 WK (STUDY DURATION: 36 WK), Tumor Site: Type of Lesion: COLON: ADENOMA OR ADENOCARCINOMA, ADENOMA OR ADENOCARCINOMA OR CARCINOMA, RECTUM: CARCINOMA, BLOOD VESSELS: ANGIOMA OR A, Tumor Site: Type of Lesion: COLON: ADENOMA OR ADENOCARCINOMA, ADENOMA OR ADENOCARCINOMA OR CARCINOMA, RECTUM: CARCINOMA, BLOOD VESSELS: ANGIOMA OR A)?
**A.** The carcinogen call was “active; positive”.

**Q.** And the carcinogen call (Species: MOUSE, Strain/Sex: SWR/J/MALE,FEMALE, Route: INTRAPERITONEAL INJECTION, Dose: 10 MG/KG BW FOR 2, 4, OR 8 WKS, ONCE A WK (STUDY DURATION: 6 MO), Tumor Site: Type of Lesion: COLON: ADENOMA)?
**A.** The carcinogen call was “active; positive- tumor incidence 30-100%”.

**Q.** And the carcinogen call (Species: MOUSE, Strain/Sex: SWR/J/MALE,FEMALE, Route: SUBCUTANEOUS INJECTION, Dose: 10 MG/KG BW ONCE A WK FOR 4 WK, Tumor Site: Type of Lesion: COLON: ADENOMA)?
**A.** Its carcinogen call is “active; positive; response about 30%”.

**Q.** And the carcinogen call (Species: RAT, Strain/Sex: F344/FEMALE, Route: INTRAVESICULAR, Dose: 0, 2 MG IN 0.2 ML ETHANOL: DEIONIZED WATER (1:3) 2/WK FOR 22 WK (TOTAL DOSE 1.2 MMOL) (STUDY DURATION: LIFESPAN), Tumor Site: Type of Lesion: COLON: TUMOR, ZYMBAL GLAND: TUMOR)?
**A.** Its carcinogen call is “active; positive”.

**Q.** And the carcinogen call (Species: RAT, Strain/Sex: F344/FEMALE, Route: SUBCUTANEOUS, Dose: 8 MG/KG 1/WK FOR 10 WK, Tumor Site: Type of Lesion: COLON: ADENOMA, CARCINOMA, ADENOCARCINOMA)?
**A.** The carcinogen call was “active; positive”.

**Q.** And the carcinogen call (Species: RAT, Strain/Sex: F344/MALE, Route: ORAL, Dose: 0, 1.0, 4.0 MG/WK IN DRINKING WATER FOR 30 WK (STUDY DURATION: LIFETIME), Dose: 0, 1.0, 4.0 MG/WK IN DRINKING WATER FOR 30 WK (STUDY DURATION: LIFETIME), Tumor Site: Type of Lesion: LIVER: CARCINOMA, SARCOMA, KIDNEY: INTERSTITIAL CELL SARCOMA OR NEUROSARCOMA OR RENAL CARCINOMA, COLON: ADENOMA OR CARCI, Tumor Site: Type of Lesion: LIVER: CARCINOMA, SARCOMA, KIDNEY: INTERSTITIAL CELL SARCOMA OR NEUROSARCOMA OR RENAL CARCINOMA, COLON: ADENOMA OR CARCI)?
**A.** The carcinogen call was “active; positive”.

**Q.** What about the carcinogen call (Species: RAT, Strain/Sex: F344/MALE, Route: ORAL, Dose: 0, 10, 40 MG/ML IN A NEUTRAL DEIONIZED DRINKING WATER SOLUTION 5 D/WK FOR 30 WK (TOTAL DOSE 30; 120 MG) (STUDY DURATION:, Dose: 0, 10, 40 MG/ML IN A NEUTRAL DEIONIZED DRINKING WATER SOLUTION 5 D/WK FOR 30 WK (TOTAL DOSE 30; 120 MG) (STUDY DURATION:, Tumor Site: Type of Lesion: LIVER: CARCINOMA, HEMANGIOSARCOMA, KIDNEY: TUMOR, COLON: ADENOCARCINOMA, ADENOMA, Tumor Site: Type of Lesion: LIVER: CARCINOMA, HEMANGIOSARCOMA, KIDNEY: TUMOR, COLON: ADENOCARCINOMA, ADENOMA) of the same molecule?
**A.** The carcinogen call was “active; positive”.

**Q.** And the carcinogen call (Species: RAT, Strain/Sex: SPRAGUE-DAWLEY/MALE, Route: SUBCUTANEOUS, Dose: 8 MG/KG 1/WK FOR 24 WK, Tumor Site: Type of Lesion: INTESTINES (LARGE AND SMALL): ADENOCARCINOMA)?
**A.** The carcinogen call was “active; positive”.

**Q.** And the carcinogen call (Species: RAT, Strain/Sex: STRAIN-BD, Route: SUBCUTANEOUS, Dose: >6 MG/KG ONCE, Tumor Site: Type of Lesion: COLON: ADENOCARCINOMA, KIDNEY: NEPHROBLASTOMA)?
**A.** The carcinogen call was “active; positive”.

**Q.** What about the carcinogen call (Species: RAT, Strain/Sex: STRAIN-BD, Route: SUBCUTANEOUS, Dose: >6 MG/KG ONCE, Tumor Site: Type of Lesion: COLON: ADENOCARCINOMA, NERVOUS SYSTEM: NEUROBLASTOMA, KIDNEY: NEPHROBLASTOMA, Tumor Site: Type of Lesion: COLON: ADENOCARCINOMA, NERVOUS SYSTEM: NEUROBLASTOMA, KIDNEY: NEPHROBLASTOMA) of the same molecule?
**A.** Its carcinogen call is “active; positive”.

**Q.** What about the carcinogen call (Species: RAT, Strain/Sex: WISTAR/MALE, Route: SUBCUTANEOUS, Dose: 0, 7.4 MG/KG IN 0.9% SALINE 1/WK FOR 10 WK ADMINISTERED TO RATS MAINTAINED ON NORMAL-PROTEIN (25% CASEIN), LOW-PROTEIN (, Tumor Site: Type of Lesion: COLON: TUMOR) of the same molecule?
**A.** The carcinogen call was “active; positive”.
